Measurements from the NIST ThermoML archive (doi:10.1016/j.fluid.2019.04.036).

Conditions: Liquid, Transpiration method

CCCCN(C=O)CCCC [N,N-dibutylformamide]
Conditions	vapor or sublimation pressure [kPa]
293.1 K	0.0026
295.8 K	0.00329
296.9 K	0.00365
298 K	0.004
298.7 K	0.00421
298.9 K	0.00438
299.3 K	0.00469
301.4 K	0.00534
304.5 K	0.00695
304.6 K	0.00705
304.8 K	0.00709
308.3 K	0.0097
308.7 K	0.01006
309.9 K	0.01103
310.7 K	0.01193
311.6 K	0.01265
312.5 K	0.01383
313.3 K	0.01469
314.7 K	0.01666
315.1 K	0.01677
315.3 K	0.01776
318.2 K	0.0217
318.4 K	0.02183
320.5 K	0.0256
321.1 K	0.02589
322.6 K	0.03097
322.8 K	0.03141
323.8 K	0.03251
325.8 K	0.03894
326.8 K	0.04037
329.4 K	0.04901
329.6 K	0.04927
334.7 K	0.0724

CCN(C=O)CC [N,N-diethylformamide]
Conditions	vapor or sublimation pressure [kPa]
288.8 K	0.0751
292.2 K	0.0961
295.1 K	0.1173
300.5 K	0.1677
300.7 K	0.169
303.7 K	0.211
305.7 K	0.2482
310.7 K	0.3265
315.7 K	0.4646
320.8 K	0.6274
323.2 K	0.7094
325.8 K	0.8534
330.9 K	1.093
335.9 K	1.479
338.5 K	1.733
340.9 K	1.948
346 K	2.46
348.5 K	2.893
350.9 K	3.209
356.1 K	4.164

CCCN(C=O)CCC [N,N-dipropylformamide]
Conditions	vapor or sublimation pressure [kPa]
278.5 K	0.00516
282.4 K	0.00741
283.4 K	0.00814
285.1 K	0.00949
288.2 K	0.01246
290.2 K	0.01527
292.2 K	0.01766
294.8 K	0.02239
295.8 K	0.02392
296.5 K	0.02608
298.4 K	0.03075
299.4 K	0.03131
301.2 K	0.03699
302.9 K	0.04152
305.1 K	0.05251
306.1 K	0.05391
307.2 K	0.05892
308.2 K	0.06219
310.4 K	0.07592
311.3 K	0.08121
313.4 K	0.09479
315.4 K	0.113
316.4 K	0.1145
318.5 K	0.1321
319.4 K	0.1476

CCCCNC=O [N-butylformamide]
Conditions	vapor or sublimation pressure [kPa]
297.1 K	0.00293
298.2 K	0.00321
299.3 K	0.00349
301.2 K	0.00422
304.2 K	0.0056
307.2 K	0.00731
310.2 K	0.00912
314.1 K	0.01307
316.2 K	0.01498
317.8 K	0.01763
318.2 K	0.01802
320.2 K	0.02208
323.1 K	0.02695
326.2 K	0.03461
329.1 K	0.04093
331.2 K	0.05017
334.2 K	0.06336
337.1 K	0.07893
340.2 K	0.09365
343.2 K	0.1151
346.2 K	0.1403
349.1 K	0.1719
352.2 K	0.208

CN(C)C=O [dimethylformamide]
Conditions	vapor or sublimation pressure [kPa]
276.3 K	0.1229
279.3 K	0.1498
281.2 K	0.1752
283.1 K	0.1994
285.3 K	0.2375
289.3 K	0.314
291.3 K	0.3569
293.3 K	0.4045
296.3 K	0.4849
299.5 K	0.5941
302.2 K	0.6949
305.2 K	0.847
